Literature values, collected in patent US20260373185A1, “METHODS FOR SEQUENTIALLY ADMINISTERING TAS-102 AND BCL-2 INHIBITOR FOR CANCER TREATMENT” (Health Research, Inc., priority 2023, published 2026).

Columns and labels:
p53-deficient cancers = details: current DNA-damaging drugs
A1 = details: relative to BCL-xL, BCL-2 and BCL-w
BCL-w = details: cell-free assays

Nc1ccn([C@@H]2O[C@H](CO)[C@@H](O)C2(F)F)c(=O)n1 [gemcitabine]
toxicity by p53 status (p53-deficient cancers): toxicity regardless of p53 status

CC1(C)CCC(c2ccc(Cl)cc2)=C(CN2CCN(c3ccc(C(=O)NS(=O)(=O)c4ccc(N[C@H](CCN5CCOCC5)CSc5ccccc5)c(S(=O)(=O)C(F)(F)F)c4)cc3)CC2)C1 [Navitoclax]
binding to Mcl-1 (MCL-1; relative to BCL-xL, BCL-2 and BCL-w): binds more weakly | binding to A1 (A1): binds more weakly | Ki (BCL-w): ≤ 1 nM

N.N.[Cl][Pt][Cl] [cisplatin]
toxicity by p53 status (p53-deficient cancers): toxicity regardless of p53 status

CC1(C)CCC(CN2CCN(c3ccc(C(=O)NS(=O)(=O)c4ccc(NCC5CCOCC5)c([N+](=O)[O-])c4)c(Oc4cnc5[nH]ccc5c4)c3)CC2)=C(c2ccc(Cl)cc2)C1 [Venetoclax]
activity to MCL-1 (MCL-1; cell-free assays): no activity
